The values that follow come from patent US6638933B2, “Bicyclic imidazo-3-yl-amine derivatives” (Gruenenthal GmbH, priority 1999, dated 2003).

SMILES strings stand for the structures.

In this test the test system is phenylquinone-induced writhing in mice. Nature of the test: Analgesia test in the writhing test in mice (phenylquinone-induced writhing). It counts as in vivo. Conditions: male NMRI mice, phenylquinone i.p. ten minutes after substance. The method, then:
Analgesia Test in the Writhing Test in Mice
The analgesic activity was investigated in the phenylquinone-induced writhing in mice (modified according to I. C. Hendershot, J. Forsaith, J. Pharmacol. Exp. Ther. 125, 237-240 (1959)). Male NMRI mice weighing 25-30 g were used. Groups of 10 animals per substance dose received 0.3 ml/mouse of a 0.02% aqueous solution of phenylquinone (phenylbenzoquinone, Sigma, Deisenhofen; solution prepared with the addition of 5% ethanol and storage in a water-bath at 45° C.) administered intraperitoneally ten minutes after intravenous or subcutaneous administration of the test substances. The animals were placed individually in observation cages. The number of pain-induced extension movements (so-called writhing reactions=straightening of the body with stretching out of the hind extremities) 5-20 minutes after administration of the phenylquinone was counted by means of a push-button counter. Animals which receive only physiological saline solution were also run as a control. The substances were tested in the standard dosage of 10 mg/kg intravenously or 21.5 mg/kg subcutaneously. The percentage inhibition (% inhibition) of the writhing reaction by a substance was calculated in accordance with the following equation: [formula]
On the technique in general: Writhing tests count abdominal constrictions after an irritant is injected.

Regarding `CCOP(=O)(CNc1c(-c2ccccc2)nc2ccccn12)OCC` [Example 12, [(2-Phenyl-imidazo[1,2-a]pyridin-3-ylamino)-methyl]-phosphonic acid diethyl ester], under “writhing counted 5-20 minutes”, the “% inhibition of the writhing reaction at 10 mg/kg intravenously” value (shortened to “% inhibition … at 10 mg/kg intravenously”) is 90%. On to `CC(C)(C)Nc1c(C(C)(C)C)nc2ccccn12` [Example 13, tert-Butyl-(2-tert-butyl-imidazo[1,2-a]pyridin-3-yl)-amine], for which the “% inhibition of the writhing reaction, intravenously, at 2.15 mg/kg” value (2.15 mg/kg (stated in cell) in the intravenous column) came out at 86 at 2.15 mg/kg %. As to `c1coc(-c2nc3ccccn3c2NC2CCCCC2)c1` [Example 20, Cyclohexyl-(2-furan-2-yl-imidazo[1,2-a]pyridin-3-yl)-amine], where the note is “writhing counted 5-20 minutes”, the “% inhibition … at 10 mg/kg intravenously” value was 43%. In the case of `CC(C)(C)Nc1c(-c2cccnc2)nc2ccccn12` [Example 21, tert-Butyl-(2-pyridin-3-yl-imidazo[1,2-a]pyridin-3-yl)-amine], the “% inhibition of the writhing reaction at 21.5 mg/kg subcutaneously” value (21.5 mg/kg subcutaneously, writhing counted 5-20 minutes) is given as 80%.

Consider `CC(C)(C)Nc1c(-c2ccccn2)nc2ccccn12` [Example 22, tert-Butyl-(2-pyridin-2-yl-imidazo[1,2-a]pyridin-3-yl)-amine], for which the “% inhibition … at 10 mg/kg intravenously” value (writhing counted 5-20 minutes) stood at 53%.

On to `CC(C)(C)Nc1c(-c2cccs2)nc2ccccn12` [Example 23, tert-Butyl-(2-thiophen-2-yl-imidazo[1,2-a]pyridin-3-yl)-amine], for which, for the setting “writhing counted 5-20 minutes”, the “% inhibition … at 10 mg/kg intravenously” value came to 62%. Still for that read-out and setting: next, `Cc1nc2ccccn2c1NC1CCCCC1` [Example 24, Cyclohexyl-(2-methyl-imidazo[1,2-a]pyridin-3-yl)-amine]: 56%.
